From article PMC9792171, “Design and synthesis of new thiazolidinone/uracil derivatives as antiproliferative agents targeting EGFR and/or BRAF^V600E” (Frontiers in Chemistry, 2022)

Experiments:
[1] = Cell viability assay (MTT), MCF-10A; type: cell-based; details: human, MCF-10A mammary gland epithelial cells, MCF-10A cells, incubated 4 days
Protocol: To test the viability of new compounds, the human mammary gland epithelial (MCF-10A) cell line was used ([Youssif et al., 2019]; [Mahmoud et al., 2022]). MCF-10A cells were incubated with compounds 3a-f and 5a-l for 4 days before being tested for viability using the MTT assay.
MTT assay was carried out to study the effect of compounds on mammary epithelial cells (MCF-10A) (Youssif, B. G. M. et al., 2019; Mahmoud, M. A., et al., 2022). The medium in which cells were propagated contained Dulbecco's modified Eagle's medium (DMEM)/ Ham's F-12 medium (1:1) supplemented with epidermal growth factor (20 ng/mL), hydrocortisone (500 ng/mL), insulin (10 μg/mL), 2 mM glutamine and 10% foetal calf serum. After every 2-3 days, the cells were passaged using trypsin ethylenediamine tetra acetic acid (EDTA). The cells were seeded at a density of 10^4 cells mL^-1 in flat-bottomed culture plates containing 96 wells each. After 24 h, medium was removed from the plates and the compounds in (in 0.1% DMSO) were added (in 200 μL medium to yield a final concentration of 0.1% v/v) to the wells of plates. A single compound was designated with four wells followed by incubation of plates for 96h at 37°C. After incubation, medium was removed completely from the plates followed by addition of MTT (0.4 mg/mL in medium) to each well and subsequent incubation of plates for 3h. MTT (along with the medium) was removed and DMSO (150μL) was added to each well of the culture plates, followed by vortexing and subsequent measurement of absorbance (at 540 nm) using microplate reader. The data are shown as percentage inhibition of proliferation in comparison with controls containing 0.1% DMSO.

EGFR = molecular target: T1, EGFR (Homo sapiens, UniProt P00533); test: EGFR inhibitory assay (EGFR-TK, DELFIA/time-resolved fluorometry); type: biochemical; details: for IC50: read-out: EGFR inhibition IC50 ± SEM
T1 construct: EGFR cytoplasmic domain (EGFR-CD, amino acids 645–1186); His6 (N); made in house; host or cells: Sf-9 insect cells (baculovirus; pBlueBacHis2B and pFASTBacHTc)
T1 sequence (P00533 669-1210): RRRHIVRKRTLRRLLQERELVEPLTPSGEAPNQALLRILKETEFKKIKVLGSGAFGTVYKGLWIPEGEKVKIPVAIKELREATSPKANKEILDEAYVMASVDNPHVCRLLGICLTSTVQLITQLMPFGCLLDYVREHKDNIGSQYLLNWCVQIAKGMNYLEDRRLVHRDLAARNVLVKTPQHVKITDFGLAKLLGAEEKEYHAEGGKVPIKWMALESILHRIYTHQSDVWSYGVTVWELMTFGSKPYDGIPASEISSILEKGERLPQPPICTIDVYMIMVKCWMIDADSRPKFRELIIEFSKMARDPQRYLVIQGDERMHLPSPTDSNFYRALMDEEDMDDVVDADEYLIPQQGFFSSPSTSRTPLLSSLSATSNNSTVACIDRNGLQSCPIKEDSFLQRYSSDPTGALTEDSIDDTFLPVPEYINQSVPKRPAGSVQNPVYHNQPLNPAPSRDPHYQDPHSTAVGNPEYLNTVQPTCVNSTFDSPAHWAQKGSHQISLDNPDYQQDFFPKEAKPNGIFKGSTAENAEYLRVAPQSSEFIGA
Protocol: 5ʹ upstream to the EGFR sequence comprised a sequence that encoded (His)6. Sf-9 cells were infected for 72h for protein expression. The pellets of Sf-9 cells were solubilized in a buffer containing sodium vanadate (100 µM), aprotinin (10 µg/mL), triton (1%), HEPES buffer (50mM), ammonium molybdate (10 µM), benzamidine HCl (16 µg/mL), NaCl (10 mM), leupeptin (10 µg/mL) and pepstatin (10 µg/mL) at 0°C for 20 min at pH 7.4, followed by centrifugation for 20 min. To eliminate the non-specifically bound material, a Ni-NTA super flow packed column was used to pass through and wash the crude extract supernatant first with 10 mM and then with 100 mM imidazole. Histidine-linked proteins were first eluted with 250 and then with 500 mM imidazole after dialysis against NaCl (50 mM), HEPES (20 mM), glycerol (10%) and 1 µg/mL each of aprotinin, leupeptin and pepstatin for 120 min. The purification was performed either at 4 °C or on ice. To record autophosphorylation level, EGFR kinase assay was carried out based on DELFIA/Time-Resolved Fluorometry. The compounds were first dissolved in DMSO absolute, after dilution to appropriate concentration using HEPES (25 mM) at pH 7.4. Each compound (10 µL) was incubated with recombinant enzyme (10 µL, 5 ng for EGFR, 1:80 dilution in 100 mM HEPES) for 10 min at 25 °C, after the addition of 5X buffer (10 µL, containing 2 mM MnCl2, 100 µM Na3VO4, 20 mM HEPES and 1 mM DTT) and ATP-MgCl2 (20 µL, containing 0.1 mM ATP and 50 mM MgCl2) and incubation for 1h. The negative and positive controls were included in each plate by the incubation of enzyme either with or without ATP-MgCl2. The liquid was removed after incubation and the plates were washed thrice using wash buffer. Europium-tagged antiphosphotyrosine antibody (75 µL, 400 ng) was added to each well followed by incubation of 1h and then washing of the plates using buffer. The enhancement solution was added to each well and the signal was recorded at excitation and emission wavelengths of 340 at 615 nm. The autophosphorylation percentage inhibition by compounds was calculated using the following equation: […]

[2] = test system: MCF-7 (breast cancer cell line); test: Antiproliferative MTT assay, MCF-7; type: cell-based; details: Homo sapiens, MCF7; MCF-7, MTT; read-out: Antiproliferative activity IC50 ± SEM (nM) MCF-7
Protocol: Using the MTT assay ([Abdelrahman et al., 2017]; [El-Sherief et al., 2018]) and doxorubicin as the reference drug, 3a-f and 5a-l were tested for antiproliferative activity against four human cancer cell lines: Panc-1 (pancreas cancer cell line), MCF-7 (breast cancer cell line), HT-29 (colon cancer cell line), and A-549 (epithelial cancer cell line).
To explore the antiproliferative potential of compounds MTT assay was performed according to previously reported procedure (El-Sherief, H.A.M., et al., 2018; Abdelrahman, M. H., et al., 2017) using different cell lines to explore the antiproliferative potential of compounds propidium iodide fluorescence assay was performed using different cell lines. To calculate the total nuclear DNA, a fluorescent dye (propidium iodide, PI) is used which can attach to the DNA, thus offering a quick and precise technique. PI cannot pass through the cell membrane and its signal intensity can be considered as directly proportional to quantity of cellular DNA. Cells whose cell membranes are damaged or have changed permeability are counted as dead ones. The assay was performed by seeding the cells of different cell lines at a density of 3000-7500 cells/well (in 200µl medium) in culture plates followed by incubation for 24h at 37 °C in humidified 5% CO2/95% air atmospheric conditions. The medium was removed; the compounds were added to the plates at 10 µM concentrations (in 0.1% DMSO) in triplicates, followed by incubation for 48 h. DMSO (0.1%) was used as control. After incubation, medium was removed followed by the addition of PI (25 µl, 50µg/mL in water/medium) to each well of the plates. At -80 °C, the plates were allowed to freeze for 24 h, followed by thawing at 25 °C. A fluorometer (Polar-Star BMG Tech) was used to record the readings at excitation and emission wavelengths of 530 and 620 nm for each well. The percentage cytotoxicity of compounds was calculated using the following formula: […]

| Compound | fold less potent than erlotinib (EGFR IC50) (EGFR; ratio of EGFR IC50 values) | IC50 (EGFR) | IC50 [2] | viability at 4 days, 50 µM [1] |
| --- | --- | --- | --- | --- |
| COc1cccc(NC(=S)Nc2c[nH]c(=O)[nH]c2=O)c1 [Compound 3c, 1-(2,4-Dioxo-1,2,3,4-tetrahydropyrimidin-5-yl)-3-(3-methoxyphenyl)thiourea] | 1.6 fold | 125 ± 11 nM | 1400 ± 100 nM | 89% |
| CCOC(=O)/C=C1\S/C(=N\c2c[nH]c(=O)[nH]c2=O)N(c2ccc(C)cc2)C1=O [Compound 5b, (Z)-Ethyl-2-((Z)-2-((2,4-dioxo-1,2,3,4-tetrahydropyrimidin-5-yl)imino)-4-oxo-3-(p-tolyl)thiazolidin-5-ylidene)acetate] | – | 91 ± 7 nM | 1100 ± 100 nM | 92% |
| COC(=O)/C=C1\S/C(=N\c2c[nH]c(=O)[nH]c2=O)N(c2cccc(OC)c2)C1=O [Compound 5i, (Z)-Methyl-2-((Z)-2-((2,4-dioxo-1,2,3,4-tetrahydropyrimidin-5-yl)imino)-3-(3-methoxyphenyl)-4-oxothiazolidin-5-ylidene)acetate] | – | 96 ± 7 nM | 1000 ± 80 nM | 89% |

Now from value to compound, other results behind:

| fold less potent than erlotinib (EGFR IC50) (EGFR; ratio of EGFR IC50 values) | IC50 (EGFR) | IC50 [2] | Compound | viability at 4 days, 50 µM [1] |
| --- | --- | --- | --- | --- |
| – | 115 ± 10 nM | 1600 ± 100 nM | CCOC(=O)/C=C1\S/C(=N\c2c[nH]c(=O)[nH]c2=O)N(c2cccc(OC)c2)C1=O [Compound 5c, (Z)-Ethyl-2-((Z)-2-((2,4-dioxo-1,2,3,4-tetrahydropyrimidin-5-yl)imino)-3-(3-methoxyphenyl)-4-oxo-thiazolidin-5-ylidene)acetate] | 96% |
| – | 112 ± 10 nM | 1700 ± 100 nM | COC(=O)/C=C1\S/C(=N\c2c[nH]c(=O)[nH]c2=O)N(c2ccc(C)cc2)C1=O [Compound 5h, (Z)-Methyl-2-((Z)-2-((2,4-dioxo-1,2,3,4-tetrahydropyrimidin-5-yl)imino)-4-oxo-3-(p-tolyl)-thiazolidin-5-ylidene)acetate] | 92% |
| – | 87 ± 5 nM | 900 ± 100 nM | COC(=O)/C=C1\S/C(=N\c2c[nH]c(=O)[nH]c2=O)N(Cc2ccccc2)C1=O [Compound 5j, (Z)-Methyl-2-((Z)-3-benzyl-2-((2,4-dioxo-1,2,3,4-tetrahydropyrimidin-5-yl)imino)-4-oxothiazolidin-5-ylidene)acetate] | 89% |
